ChEMBL document CHEMBL1151592, “Synthesis of new 3,4-disubstituted pyrrolidines as thromboxane A2/prostaglandin H2 (TP) receptor antagonists” (Bioorg Med Chem Lett, 1996)

Legend:
Homo sapiens = organism: Homo sapiens; assay: Compound was evaluated for anti-platelet activity by measuring its inhibitory effect on human platelet rich plasma (PRP) aggregated with U-46,619.; type: functional
Cavia porcellus = assay: Compound was evaluated in vivo for inhibition of U 46619 induced increase in tracheal pressure of guinea pig.; type: functional; details: Trachea, read-out: ID50 (the source's name)
[1] = target: Thromboxane A2 receptor (Cavia porcellus); assay: Antagonistic activity against TP-receptor by inhibition of U 46619-induced contraction of isolated guinea pig trachea; details: read-out: pA2 (converted)

IC50 (Homo sapiens) [µM]	Kb [1] [µM]	SMILES	ED50 (Cavia porcellus) [mg/kg]
0.6	–	O=C(O)CC/C=C\C[C@@H]1CN(S(=O)(=O)c2cccc3ccccc23)C[C@@H]1c1ccccc1O	0.0075
4.7	0.001	O=C(O)CC/C=C\C[C@@H]1CN(S(=O)(=O)c2ccc(Cl)cc2)C[C@@H]1c1ccccc1O	0.03
–	–	CC(C)C(=O)N1C[C@@H](C/C=C\CCC(=O)O)[C@@H](c2ccccc2O)C1	0.11
3.6	0.00631	O=C(O)CCC/C=C\C[C@@H]1CN(S(=O)(=O)c2cccc3ccccc23)C[C@@H]1c1ccccc1O	0.08
–	–	O=C(O)CC/C=C\C[C@@H]1CN(Cc2cccnc2)C[C@@H]1c1ccccc1O	1
1.3	–	O=C(O)CC/C=C\C[C@@H]1CN(S(=O)(=O)c2cccc3cnccc23)C[C@@H]1c1ccccc1O	0.011
–	–	O=C(O)CC/C=C\C[C@@H]1CO[C@H](c2ccccc2Cl)O[C@@H]1c1ccccc1O	0.0007
–	–	O=C(O)CC/C=C\C[C@@H]1CN(S(=O)(=O)c2cccc3cnccc23)C[C@H]1c1ccccc1O	0.056
–	–	CCCCCCC(=O)N1C[C@@H](C/C=C\CCC(=O)O)[C@@H](c2ccccc2O)C1	0.43
–	0.251	O=C(O)CC/C=C\C[C@@H]1CN(Cc2ccccc2)C[C@@H]1c1ccccc1O	0.17
–	0.0126	O=C(O)CC/C=C\C[C@@H]1CN(S(=O)(=O)c2ccc(Cl)cc2)C[C@H]1c1ccccc1O	0.12
3	–	O=C(O)CC/C=C\C[C@@H]1CN(S(=O)(=O)c2cccc3cccnc23)C[C@@H]1c1ccccc1O	0.025
